We go through 20 molecules from US10501479B2, “Benzenesulfonyl-asymmetric ureas and medical uses thereof” (HELSINN HEALTHCARE SA, priority 2016, dated 2019).

Read-outs that look alike come from different tables or passages of the source.

By IC50 is commonly meant the concentration that gives 50% inhibition.

Common to all, as to assay type: cell-based
Test [1] addresses T1, recombinant human ghrelin receptor (HEK293/GRLN) (Homo sapiens, UniProt Q92847).
T1 construct: expressed in transfected cells
The experiment in a line: Ghrelin inverse agonist potency (EC50) with IP-1 (IP-One HTRF) assay. Conditions: IP-1 assay. In a few lines:
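IP-1 accumulation was measured by HTRF (IP1-d2/Tb-cryptate, 620/665 nm read after 1 hour at room temperature) following 1 hour of compound treatment at 37° C. Cells were HEK293 stably expressing human ghrelin receptor, plated a day earlier on Matrigel. Inverse agonist potency was reported as EC50.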
Background: Time-resolved FRET reads energy transfer from a long-lived donor to a nearby acceptor.

In test [2] the target is T2, GHSR-1a (HEK293/GHSR1a cell line) (Homo sapiens, UniProt Q92847).
T2 construct: expressed in transfected cells; host or cells: HEK293/GHSR1a cell line
T2 sequence (Q92847 whole entry): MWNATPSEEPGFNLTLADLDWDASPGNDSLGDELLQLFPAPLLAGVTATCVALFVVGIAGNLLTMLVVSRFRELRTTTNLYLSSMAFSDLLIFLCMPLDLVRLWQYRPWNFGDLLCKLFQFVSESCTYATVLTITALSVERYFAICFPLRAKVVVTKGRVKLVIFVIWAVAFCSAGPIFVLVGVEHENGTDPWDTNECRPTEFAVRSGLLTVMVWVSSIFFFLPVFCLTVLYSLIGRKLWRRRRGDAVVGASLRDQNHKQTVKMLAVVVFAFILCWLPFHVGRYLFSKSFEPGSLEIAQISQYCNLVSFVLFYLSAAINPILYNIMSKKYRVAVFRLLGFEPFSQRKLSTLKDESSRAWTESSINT
The experiment in a line: Ghrelin antagonist potency (IC50) with calcium FLIPR assay, ghrelin 10 nM. In a few lines: (§1)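 In this assay, compound alone assesses agonism, while compound co-added with ghrelin at 10 nM assesses antagonism. In both modes the calcium-dye signal is tracked for 2 min from t=20 sec.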

Test [3] deals with T2, GHSR-1a (HEK293/GHSR1a cell line). The experiment in a line: Ghrelin agonist potency (EC50) with calcium FLIPR assay. In a few lines:
as §1

Setting [4] is: HEK293/GRLN, read-out: Activity EC50 (ghrelin inverse agonist potency).
[5] abbreviates: HEK293/GHSR1a, ghrelin 10 nM, read-out: Activity IC50 (ghrelin antagonist potency).
Where [6] appears, read: HEK293/GHSR1a, read-out: Activity EC50/EMax: EC50 (ghrelin agonist potency).
[7] abbreviates: ghrelin inverse agonist potency, read-out: Activity EC50.
Where [8] appears, read: ghrelin antagonist potency, read-out: Activity IC50.
[9] abbreviates: ghrelin agonist potency, read-out: Activity EC50/EMax.

T1 sequence (Q92847 whole entry): as above

On to `COc1cccc(OC)c1C(C)NC(=O)Nc1ccc(S(=O)(=O)Cc2ccc3c(c2)CNC3)cc1` (stereo not drawn) [H1450, 1-(1-(2,6-dimethoxyphenyl)ethyl)-3-(4-((isoindolin-5-ylmethyl)sulfonyl)phenyl)urea], for which the EC50 is 182 nM in test [1] (setting [4]) and more than 30000 nM in test [3] (setting [6]). For the same molecule, in test [2] (setting [5]), the IC50 is 290 nM.
The corresponding values for `C[C@H](NC(=O)Nc1ccc(S(=O)(=O)CC2CCNCC2)cc1)c1ccccc1` [H1303, (S)-1-(1-phenylethyl)-3-(4-((piperidin-4-ylmethyl)sulfonyl)phenyl)urea] are more than 30000 nM, more than 30000 nM and more than 30000 nM.
Taken in the same sequence, the figures for `CC(NC(=O)Nc1ccc(S(=O)(=O)Cc2cc3c(c(C(F)(F)F)c2)CNCC3)cc1F)c1cccc(Cl)c1Cl` (stereo not drawn) [H1400, 1-(1-(2,3-dichlorophenyl)ethyl)-3-(2-fluoro-4-(((8-(trifluoromethyl)-1,2,3,4-tetrahydroisoquinolin-6-yl)methyl)sulfonyl)phenyl)urea] were 15.4 nM, more than 30000 nM and 70.5 nM.
Taken in the same sequence, the figures for `COc1cc(S(=O)(=O)Cc2cc(F)c3c(c2)CCNC3)ccc1NC(=O)NC(C)c1cccc(Cl)c1Cl` (stereo not drawn) [H1424, 1-(1-(2,3-dichlorophenyl)ethyl)-3-(4-(((8-fluoro-1,2,3,4-tetrahydroisoquinolin-6-yl)methyl)sulfonyl)-2-methoxyphenyl)urea] were 8.9 nM, more than 30000 nM and 15.4 nM.
With `CC(NC(=O)Nc1ccc(S(=O)(=O)CC2=CC3CCC(C2)N3)cc1)c1cccc(Cl)c1Cl` (stereo not drawn) [H1488, 1-(4-(((8-azabicyclo[3.2.1]oct-2-en-3-yl)methyl)sulfonyl)phenyl)-3-(1-(2,3-dichlorophenyl)ethyl)urea], the EC50 in test [1] (setting [7]) is 668 nM; in test [3] (setting [9]), more than 30000 nM. The half-inhibitory concentration (IC50) in test [2] (setting [8]) was found to be 2050 nM.
Regarding `CC(NC(=O)Nc1ccc(S(=O)(=O)Cc2cc(Cl)c3c(c2)CNC3)cc1)c1ccccc1` (stereo not drawn) [H1405, 1-(4-(((7-chloroisoindolin-5-yl)methyl)sulfonyl)phenyl)-3-(1-phenylethyl)urea], the values for the EC50 in test [1] (setting [4]) and in test [3] (setting [6]) were 90 nM and more than 30000 nM, respectively. Further, the IC50 in test [2] (setting [5]) worked out at 1860 nM.
The corresponding values for `COc1cc(S(=O)(=O)Cc2ccc3c(c2)CN(C)C3)ccc1NC(=O)NC(C)c1ccccc1OC` (stereo not drawn) [H1438, 1-(2-methoxy-4-(((2-methylisoindolin-5-yl)methyl)sulfonyl)phenyl)-3-(1-(2-methoxyphenyl)ethyl)urea] are 2.76 nM, more than 30000 nM and 12.6 nM.
With `CC(NC(=O)Nc1ccc(S(=O)(=O)Cc2ccc3c(c2)CNC3)cc1C(C)(C)O)c1ccccc1` (stereo not drawn) [H1512, 1-(2-(2-hydroxypropan-2-yl)-4-((isoindolin-5-ylmethyl)sulfonyl)phenyl)-3-(1-phenylethyl)urea], the figures for the EC50 in test [1] (setting [7]) and in test [3] (setting [9]) were 273 nM and more than 30000 nM, respectively. Further, the IC50 in test [2] (setting [8]) stood at 582 nM.
On to `C[C@H](NC(=O)Nc1ccc(S(=O)(=O)Cc2nc3c(s2)CNC3)cc1)c1ccccc1` [H1465, (S)-1-(4-(((5,6-dihydro-4H-pyrrolo[3,4-d]thiazol-2-yl)methyl)sulfonyl)phenyl)-3-(1-phenylethyl)urea], for which the EC50 was 678 nM in test [1] (setting [7]) and more than 30000 nM in test [3] (setting [9]). For the same molecule, the IC50 in test [2] (setting [8]) came out at 5290 nM.
As for `CCN(CC)C1CCC(CS(=O)(=O)c2ccc(NC(=O)NC(C)c3cccc(Cl)c3Cl)cc2)CC1` (stereo not drawn) [H1372, 1-(1-(2,3-dichlorophenyl)ethyl)-3-(4-(((4-(diethylamino)cyclohexyl)methyl)sulfonyl)phenyl)urea], the EC50 in test [1] (setting [4]) was 936 nM; in test [3] (setting [6]) it was more than 30000 nM. In test [2] (setting [5]), the IC50 is 18200 nM.
The corresponding values for `COc1ccc([C@@H](C)NC(=O)Nc2ccc(S(=O)(=O)Cc3ccc4c(c3)CCN(C)C4)cc2F)c(Cl)c1Cl` [H1423, (R)-1-(1-(2,3-dichloro-4-methoxyphenyl)ethyl)-3-(2-fluoro-4-(((2-methyl-1,2,3,4-tetrahydroisoquinolin-6-yl)methyl)sulfonyl)phenyl)urea] are 3.77 nM, more than 30000 nM and 114 nM.
Taken in the same sequence, the figures for `CC(NC(=O)Nc1ccc(S(=O)(=O)Cc2ccc3c(c2)CNC3)cc1)c1ccc2c(c1)OCO2` (stereo not drawn) [H1452, 1-(1-(benzo[d][1,3]dioxol-5-yl)ethyl)-3-(4-((isoindolin-5-ylmethyl)sulfonyl)phenyl)urea] were 34.8 nM, more than 30000 nM and 87 nM.
On to `C[C@H](NC(=O)Nc1ccc(S(=O)(=O)Nc2ccc3[nH]cnc3c2)cc1)c1cccc(Cl)c1Cl` [H1111, (S)-N-(1H-benzo[d]imidazol-5-yl)-4-(3-(1-(2,3-dichlorophenyl)ethyl)ureido) benzenesulfonamide], for which the EC50 in test [1] (inverse agonist potency, read-out: EC50 (Activity)) stood at 1230 nM. Besides, the concentration for half-maximal inhibition (IC50) in test [2] (ghrelin antagonist potency, read-out: IC50 (Activity)) worked out at 2250 nM. Also, the “EC50/EMax: EC50 (Activity)” value in test [3] (ghrelin agonist potency) is more than 30000 nM.
For `CC(NC(=O)Nc1ccc(S(=O)(=O)Cc2ccc3c(c2)CNC3)c(C(N)=O)c1)c1ccccc1` (stereo not drawn) [H1531, 2-((isoindolin-5-ylmethyl)sulfonyl)-5-(3-(1-phenylethyl)ureido)benzamide], the EC50 in test [1] (setting [7]) was 444 nM; in test [3] (setting [9]), more than 30000 nM. Besides, the 50% inhibitory concentration (IC50) in test [2] (setting [8]) came out at 418 nM.
On to `COc1ccc(C(C)NC(=O)Nc2ccc(S(=O)(=O)Cc3ccc4c(c3)CN(C)C4)cc2)cc1Cl` (stereo not drawn) [H1476, 1-(1-(3-chloro-4-methoxyphenyl)ethyl)-3-(4-(((2-methylisoindolin-5-yl)methyl)sulfonyl)phenyl)urea], for which the EC50 in test [1] (setting [7]) was 24.1 nM; in test [3] (setting [9]), more than 30000 nM. For the same molecule, in test [2] (setting [8]), the IC50 came to 42.6 nM.
Taken in the same sequence, the figures for `CC(NC(=O)Nc1ccc(S(=O)(=O)Cc2ccc3c(c2)CNC3)c(C(=O)O)c1)c1ccccc1` (stereo not drawn) [H1530, 2-((isoindolin-5-ylmethyl)sulfonyl)-5-(3-(1-phenylethyl)ureido)benzoic acid] were 784 nM, more than 30000 nM and 614 nM.
In the case of `COc1cc(S(=O)(=O)Cc2ccc(CO)cc2)ccc1NC(=O)NC(C)c1c(F)cccc1F` (stereo not drawn) [H1432, 1-(1-(2,6-difluorophenyl)ethyl)-3-(4-((4-(hydroxymethyl)benzyl)sulfonyl)-2-methoxyphenyl)urea], the EC50 in test [1] (setting [4]) is 367 nM; in test [3] (setting [6]), more than 30000 nM. The IC50 in test [2] (setting [5]) was 5500 nM.
Take `O=C(NCC1COc2ccccc2O1)Nc1ccc(S(=O)(=O)Cc2ccc3c(c2)CNC3)cc1` (stereo not drawn) [H1483, 1-((2,3-dihydrobenzo[b][1,4]dioxin-2-yl)methyl)-3-(4-((isoindolin-5-ylmethyl)sulfonyl)phenyl)urea]: the EC50 in test [1] (setting [7]) was 24.1 nM; in test [3] (setting [9]) it was more than 30000 nM. In addition, the IC50 in test [2] (setting [8]) was found to be 53.8 nM.
As for `COc1ccc(C(C)NC(=O)Nc2ccc(S(=O)(=O)Cc3ccc4c(c3)CNC4)cc2)cc1` (stereo not drawn) [H1298, 1-(4-((isoindolin-5-ylmethyl)sulfonyl)phenyl)-3-(1-(4-methoxyphenyl)ethyl)urea], the EC50 in test [1] (setting [4]) was 115 nM; in test [3] (setting [6]), more than 30000 nM. For the same molecule, the IC50 in test [2] (setting [5]) was 506 nM.
Consider `CC(NC(=O)Nc1ccc(S(=O)(=O)Cc2ccc3c(c2)CNC3)c(CO)c1)c1ccccc1` (stereo not drawn) [H1520, 1-(3-(hydroxymethyl)-4-((isoindolin-5-ylmethyl)sulfonyl)phenyl)-3-(1-phenylethyl)urea], for which the EC50 in test [1] (setting [7]) is 12.7 nM; in test [3] (setting [9]), more than 30000 nM. In addition, the IC50 in test [2] (setting [8]) came out at 26.2 nM.
